Test results: patent US12624039B2, “BTK inhibitors” (DIZAL (JIANGSU) PHARMACEUTICAL CO., LTD., priority 2020, dated 2026)
Values after ≈ are worked out from the molar mass of the structure shown. Read-outs that look alike come from different tables or passages of the source.

Columns and labels:
Recombinant BTK(C481S) = molecular target: T1, Recombinant BTK(C481S) (Homo sapiens, UniProt Q06187, C481S); assay: BTK C481S HTRF kinase assay; assay type: biochemical; conditions: 30 min pre-incubation, 120 min reaction
T1 construct: purchased SignalChem
T1 sequence (Q06187 whole entry C481S): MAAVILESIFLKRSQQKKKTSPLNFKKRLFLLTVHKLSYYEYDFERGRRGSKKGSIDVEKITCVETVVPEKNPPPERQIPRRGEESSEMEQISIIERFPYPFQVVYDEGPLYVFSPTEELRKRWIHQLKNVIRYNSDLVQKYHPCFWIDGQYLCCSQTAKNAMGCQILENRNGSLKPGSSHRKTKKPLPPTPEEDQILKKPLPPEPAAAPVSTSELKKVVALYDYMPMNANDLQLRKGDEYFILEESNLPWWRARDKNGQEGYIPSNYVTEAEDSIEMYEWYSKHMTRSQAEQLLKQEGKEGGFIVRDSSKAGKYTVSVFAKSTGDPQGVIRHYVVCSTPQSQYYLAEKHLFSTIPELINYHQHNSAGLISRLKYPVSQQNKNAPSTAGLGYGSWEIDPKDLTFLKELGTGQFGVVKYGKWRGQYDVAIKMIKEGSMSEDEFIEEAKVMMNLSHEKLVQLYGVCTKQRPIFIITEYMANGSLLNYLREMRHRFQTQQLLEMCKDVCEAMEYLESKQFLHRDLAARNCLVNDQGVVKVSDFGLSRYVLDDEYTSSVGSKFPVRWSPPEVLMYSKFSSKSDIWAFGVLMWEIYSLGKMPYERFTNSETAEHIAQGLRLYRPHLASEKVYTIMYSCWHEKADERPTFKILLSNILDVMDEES
Experimental: [The procedure below names another variant; the source lists this variant under the same test.] Recombinant BTK wild type (BTK WT) was purchased from Thermo fisher.
In brief, recombinant kinases were pre-incubated in the presence or absence of compound at room temperature for 30 minutes. The reaction was initiated by the addition of the ATP and substrate peptide which could be phosphorylated by kinases in the reaction. After 120 minutes incubation, the reaction was stopped by the addition of the detection reagent mix containing EDTA.

[1] = Log D determination (octanol/phosphate buffer); assay type: physicochemical; conditions: 25° C.
Experimental: 10 μL of working solution of each cassette is placed in order into respective 96-well rack position (Log D plate). Add 500 μL of saturated octanol into each vial of the above cap-less Log D plate followed by the addition of 500 μL of saturated phosphate buffer. Seal with a moulded PTFE/SIL 96-Well Plate Cover.
The samples are centrifuged at 4,000 rpm at 25° C. for 30 minutes to separate the phases. Pipette and syringe are used to pipette about 100 μL from the octanol and buffer phases to a new 96-well plate, respectively.
5 μL of octanol sample is transferred to a new 96-well plate, followed by addition of 495 μL of a mixture of H2O and acetonitrile containing internal standard (1:1) as 100 fold octanol samples. Vortex for 5 minutes at 1,000 rpm.
50 μL of 100 fold samples are transferred to new 96-well plate, followed by addition of 450 μL of a mixture of H2O and acetonitrile containing internal standard (1:1) as 1,000 fold octanol samples. Vortex for 5 minutes at 1,000 rpm.
The 1,000 folds octanol samples are serially diluted into 10,000, 100,000 and 1,000,000 folds with a mixture of H2O and acetonitrile containing internal standard (1:1).
50 μL of buffer samples are transferred to new 96-well plate, followed by addition of 450 μL of a mixture of H2O and acetonitrile containing internal standard (1:1) as 10 folds buffer samples. Vortex for 5 minutes at 1,000 rpm.
The 10 folds buffer samples are serially diluted into 100, 1,000 and 10,000 folds with a mixture of H2O and acetonitrile containing internal standard (1:1). The samples are evaluated by LC/MS/MS analysis. All compounds are tested in singlicate.
All calculations are carried out using Microsoft Excel. The concentrations of test compound in octanol/buffer solution are evaluated by LC/MS/MS. Calculate the Log D value of the test compound as follows:
(§1) [formula] DF means the dilution factor. Procedure for Protein Binding Measurements in Human Plasma by Using Equilibrium Dialysis

DMSO solubility = assay type: physicochemical
[2] = Protein binding in human plasma by equilibrium dialysis; assay type: in vitro ADME; conditions: 18 hours at 37° C.; for fraction unbound at 18 h, 5 μM: human, plasma, pH 7.4, human plasma, read-out: hPPB (fu %); for hPPB (fu %): human plasma, 5 μM, fraction unbound
Experimental: as §1
Add 597 μL of blank plasma into each vial of a new plastic plate or separate plastic tube by addition of 3 μL of the working solution of each cassette, vortex at 1,000 rpm for 5 minutes. The final percent volume of organic solvent is 0.5% and the final concentration for test compound is 5 μM. Immediately transfer 50 μL of the spiked plasma suspension to a 96-well plate to act as T=0 control sample. The samples are treated the same as the samples after incubation. Place all remaining spiked plasma in the incubator for the duration of the study.
Place inserts open end up into the wells of the base plate. Add 500 μL of phosphate buffer (pH 7.4) to the buffer chamber, which is indicated by the white ring. Add 300 μL of spiked plasma sample into the sample chamber, which is indicated by the red ring. Cover the unit with gas permeable lid and incubate for 18 hours at 37° C. at 300 rpm with 5% CO2 on an orbital shaker in the CO2 incubator. At the end of incubation, remove lid and pipette 50 μL of post-dialysis samples from both buffer and plasma chambers into separated 96-well plate for analysis, respectively.
At the same time, the remaining spiked plasma sample in the plastic plate or separate plastic tube is incubated for 18 hours at 37° C. with 5% CO2 in the CO2 incubator. At T=18 hours, transfer 50 μL of the original spiked plasma suspension to the 96-well plate for analysis.
Add 50 μL of Human plasma to the buffer samples, and an equal volume of PBS to the collected plasma samples. Vortex the plate at 1,000 rpm for 2 minutes and add 400 μL of acetonitrile containing an appropriate internal standard (IS) to precipitate protein and release compound. Vortex at 1,000 rpm for 10 minutes. Centrifuge for 30 minutes at 4,000 rpm. Transfer 250 μl of the supernatant to new 96-well plates and centrifuge again (4,000 rpm, 30 minutes). Then transfer 100 μL of the supernatant to new 96-well plates for analysis. Add 100 μL of distilled water to each sample and vortex for 5 minutes at 1,000 rpm for analysis by LC-MS/MS. All compounds are tested in singlicate at 5 μM in human plasma.
All calculations are carried out using Microsoft Excel.
Calculate the percentage of unbound, percentage of bound and recovery of test compound as follows: […]

Row | Structure (SMILES) | IC50 (Recombinant BTK(C481S)) | logD at 2 h [1] | solubility (DMSO solubility) | fraction unbound at 18 h, 5 μM [2] | logD [1] | hPPB (fu %) [2] | solubility (DMSO solubility; kinetic from dmso stock)
1 | Nc1nccn2c(C3CCC(CO)OC3)nc(-c3ccc(Oc4ccccc4)cc3F)c12 (single isomer, unassigned) [Compound 2, Trans-(5-(8-amino-1-(2-fluoro-4-phenoxyphenyl)imidazo[1,5-a]pyrazin-3-yl)tetrahydro-2H-pyran-2-yl)methanol] | 0.66 nM | 3.01 | 15.1 µM (≈ 6.56 µg/mL) | 0.106 |  |  | 
2 | Nc1nccn2c(C3CCC(CO)OC3)nc(-c3ccc(Oc4ccccc4)cc3F)c12 (single isomer, unassigned) [Compound 3, Trans-(5-(8-amino-1-(2-fluoro-4-phenoxyphenyl)imidazo[1,5-a]pyrazin-3-yl)tetrahydro-2H-pyran-2-yl)methanol] | 6.59 nM |  | 34.1 µM (≈ 14.8 µg/mL) |  | 2.88 | 11.9% | 
3 | Nc1nccn2c(C3CCC(CO)OC3)nc(-c3ccc(Oc4ccccc4)c(F)c3F)c12 (single isomer, unassigned) [Compound 4, (5-(8-amino-1-(2,3-difluoro-4-phenoxyphenyl)imidazo[1,5-a]pyrazin-3-yl)tetrahydro-2H-pyran-2-yl)methanol] | 0.61 nM | 3.1 |  | 0.088 |  |  | 63.1 µM (≈ 28.6 µg/mL)
4 | Nc1nccn2c(C3CCC(CO)OC3)nc(-c3ccc(Oc4ccccc4)c(F)c3F)c12 (single isomer, unassigned) [Compound 5, (5-(8-amino-1-(2,3-difluoro-4-phenoxyphenyl)imidazo[1,5-a]pyrazin-3-yl)tetrahydro-2H-pyran-2-yl)methanol] | 5.42 nM |  | 61.9 µM (≈ 28 µg/mL) |  | 2.89 | 9.0% | 
5 | Nc1nccn2c(C3CCC(CO)OC3)nc(-c3ccc(Oc4cccc(F)c4F)cc3)c12 (single isomer, unassigned) [Compound 6, (5-(8-amino-1-(4-(2,3-difluorophenoxy)phenyl)imidazo[1,5-a]pyrazin-3-yl)tetrahydro-2H-pyran-2-yl)methanol] | 0.42 nM | 3.28 |  | 0.075 |  |  | 43.9 µM (≈ 19.9 µg/mL)
6 | Nc1nccn2c(C3CCC(CO)OC3)nc(-c3ccc(Oc4ccccc4)cc3)c12 (stereo not shown) [Compound 1, (5-(8-amino-1-(4-phenoxyphenyl)imidazo[1,5-a]pyrazin-3-yl)tetrahydro-2H-pyran-2-yl)methanol] | 1.06 nM | 3.14 |  | 0.098 |  |  | 51.3 µM (≈ 21.4 µg/mL)

Results, then the compound that gave them:

Row | IC50 (Recombinant BTK(C481S)) | logD at 2 h [1] | solubility (DMSO solubility) | fraction unbound at 18 h, 5 μM [2] | logD [1] | hPPB (fu %) [2] | solubility (DMSO solubility; kinetic from dmso stock) | Structure (SMILES)
7 | 1.53 nM |  | 45.8 µM (≈ 20.7 µg/mL) |  | 3.19 | 7.3% |  | Nc1nccn2c(C3CCC(CO)OC3)nc(-c3ccc(Oc4cccc(F)c4F)cc3)c12 (single isomer, unassigned) [Compound 7, (5-(8-amino-1-(4-(2,3-difluorophenoxy)phenyl)imidazo[1,5-a]pyrazin-3-yl)tetrahydro-2H-pyran-2-yl)methanol]
8 | 2.8 nM | 3.1 | 21.0 µM (≈ 9.14 µg/mL) | 0.093 |  |  |  | Nc1ncnn2c(C3CCC(CO)OC3)nc(-c3ccc(Oc4ccccc4)cc3F)c12 (single isomer, unassigned) [Compound 8, (5-(4-amino-5-(2-fluoro-4-phenoxyphenyl)imidazo[5,1-f][1,2,4]triazin-7-yl)tetrahydro-2H-pyran-2-yl)methanol]
9 | 6.42 nM |  | 20.3 µM (≈ 8.84 µg/mL) |  | 3.00 | 5.8% |  | Nc1ncnn2c(C3CCC(CO)OC3)nc(-c3ccc(Oc4ccccc4)cc3F)c12 (single isomer, unassigned) [Compound 9, (5-(4-amino-5-(2-fluoro-4-phenoxyphenyl)imidazo[1,5-a][1,2,4]triazin-7-yl)tetrahydro-2H-pyran-2-yl)methanol]
10 | 0.95 nM |  | 20.5 µM (≈ 8.93 µg/mL) |  | 3.07 | 8.1% |  | Nc1ncnn2c(C3CCC(CO)OC3)nc(-c3ccc(Oc4ccccc4)cc3F)c12 (single isomer, unassigned) [Compound 10, Trans-(5-(4-amino-5-(2-fluoro-4-phenoxyphenyl)imidazo[5,1-f][1,2,4]triazin-7-yl)tetrahydro-2H-pyran-2-yl)methanol]
11 | 5.03 nM |  | <1.6 µM |  | 3.09 | 8.9% |  | Nc1ncnn2c(C3CCC(CO)OC3)nc(-c3ccc(Oc4ccccc4)cc3F)c12 (single isomer, unassigned) [Compound 11, Trans-(5-(4-amino-5-(2-fluoro-4-phenoxyphenyl)imidazo[5,1-f][1,2,4]triazin-7-yl)tetrahydro-2H-pyran-2-yl)methanol]
12 | 0.27 nM | 3.18 | 45.7 µM (≈ 20.7 µg/mL) | 0.074 |  |  |  | Nc1ncnn2c(C3CCC(CO)OC3)nc(-c3ccc(Oc4ccccc4)c(F)c3F)c12 (stereo not shown) [Compound 12, (5-(4-amino-5-(2,3-difluoro-4-phenoxyphenyl)imidazo[1,5-f][1,2,4]triazin-7-yl)tetrahydro-2H-pyran-2-yl)methanol]
13 | 0.86 nM | 3.29 |  | 0.049 |  |  | 48 µM (≈ 21.8 µg/mL) | Nc1ncnn2c(C3CCC(CO)OC3)nc(-c3ccc(Oc4cccc(F)c4F)cc3)c12 (stereo not shown) [Compound 14, (5-(4-amino-5-(4-(2,3-difluorophenoxy)phenyl)imidazo[5,1-f][1,2,4]triazin-7-yl)tetrahydro-2H-pyran-2-yl)methanol]
